Laboratory results from patent US20240173285A1, “COMPOSITIONS COMPRISING EPA AND METHODS OF USING THE SAME FOR TREATING AND/OR PREVENTING ENDOTHELIAL DYSFUNCTION IN A SUBJECT” (Amarin Pharmaceuticals Ireland Limited, priority 2021, published 2024).

Tests used:
HUVECs [1] = test: Peroxynitrite (ONOO-) release from HUVECs measured with porphyrinic nanosensor; type: cell-based, human; conditions: 10 μM 2 hours, then IL-6 12 ng/ml 24 h; for ONOO- Release: calcium ionophore, mean ± SEM, N = 4-5
Text: FIG. 5 is a schematic illustration of the ONOO— assay. The nanosensor is used to quantitate endothelial NO and ONOO— release in real time and is made by depositing a sensing material on the tip of carbon fiber with a diameter of only 0.5 μm. The fiber is sealed with nonconductive epoxy and electrically connected to wires (gold, copper) with conductive silver epoxy. Conductive films of polymeric Ni(II) tetrakis (3-methoxy-4-hydroxyphenyl) porphyrin and Mn(III) paracyclophanylporphyrin were used for the NO and ONOO— sensors, respectively.
Release of ONOO— from HUVECs was measured as previously described. Briefly, in parallel with the cellular preparations for proteomic analysis, HUVECs were stimulated with calcium ionophore and ONOO— was measured using a porphyrinic nanosensor (FIG. 5).

HUVECs [2] = test: NO release from HUVECs measured with tandem porphyrinic nanosensors; type: cell-based, human; conditions: for NO Release: then IL-6 12 ng/ml 24 h, calcium ionophore, mean ± SEM, N = 4-5
Experimental: (§1) Human pulmonary ECs (PECs) and umbilical vein ECs (HUVECs) were treated with vehicle or EPA (40/10 μM in PECs/HUVECs) and IL-6 (12 ng/ml) for 24 hours. Proteomic analysis was performed using liquid chromatography/mass spectroscopy. […] NO release was measured in HUVECs using tandem porphyrinic nanosensors following stimulation with calcium.
NO release from HUVECs was measured as previously described. Briefly, in parallel with the cellular preparations for proteomic analysis, HUVECs were stimulated with calcium ionophore and NO was measured using tandem porphyrinic nanosensors.

Human PECs = test: Fatty acid content of PECs by GC/MS; type: cell-based; conditions: PECs pretreated with EPA 40 μM, IL-6
Experimental: Human PECs were pretreated with vehicle or EPA (40 μM) for 2 hours, then challenged with IL-6 at 12 ng/ml for 24 hours. Proteomic analysis was performed using LC/MS to capture relative expression levels. Only significant changes in protein expression between treatment groups >2-fold were analyzed. Levels of intercellular adhesion molecule-1 (ICAM-1) were measured by immunochemistry. EPA, docosahexaenoic acid (DHA), docosapentaenoic acid (DPA), palmitic acid (PA), linoleic acid (LA) and arachidonic acid (AA) content was measured by GC/MS.

[3] = test system: Platelet endothelial cell adhesion molecule 1 (PECAM-1); test: PECAM-1 expression relative to IL-6 in HUVECs (LC/MS proteomics); type: cell-based, human; conditions: 10 μM 2 hours, then IL-6 12 ng/ml 24 h
Experimental: HUVECs were treated with vehicle, EPA, or AA (10 μM) for 2 hours, and then challenged with IL-6 (12 ng/ml) for 24 h hours. After incubation, cells were pelleted and frozen at −80° C. until proteomic analysis was performed. Cell pellets were lysed using methanol/chloroform extraction. Proteins were denatured, reduced, alkylated, and trypsin digested. Samples were then prepared for Tandem Mass Tag (TMT) 10plex labeling. A bicinchoninic acid (BCA) assay was performed on each sample to quantify the total protein in each sample, which is important to confirm equal amounts of each sample are added to the multiplex sample. Each peptide in a sample was given a unique, low molecular weight (typically 126-130 Da), and then the samples were combined. Relative protein expression levels among the various treatments were measured using LC/MS proteomic techniques. Following protein digest, peptides are separated over a reverse phase column and then identified based on their mass. Each multiplexed sample was then fractionated to increase the overall protein coverage using high pH reversed phase fractionation and analyzed by LC/MS using a Dionex UltiMate 3000 RSLC in tandem with a Q-Exactive/Lumos Orbitrap Mass Spectrometer. The chromatography was performed using a 2-hour gradient on a Thermo Pepmap C18 column (100 Å pore size, 3.0 μm particle size, […]×150 mm) set at 50° C. […]

[4] = test system: heme oxygenase-1 (HMOX-1); test: HMOX-1 expression relative to IL-6 in HUVECs (LC/MS proteomics); type: cell-based, human; conditions: 10 μM 2 hours, then IL-6 12 ng/ml 24 h
Experimental: HUVECs were treated with vehicle, EPA, or DHA (10 μM) for 2 hours, and then challenged with IL-6 (12 ng/ml) for 24 h hours. After incubation, cells were pelleted and frozen at −80° C. until proteomic analysis was performed. Cell pellets were lysed using methanol/chloroform extraction. Proteins were denatured, reduced, alkylated, and trypsin digested. Samples were then prepared for Tandem Mass Tag (TMT) 10plex labeling. A bicinchoninic acid (BCA) assay was performed on each sample to quantify the total protein in each sample, which is important to confirm equal amounts of each sample are added to the multiplex sample. Each peptide in a sample was given a unique, low molecular weight (typically 126-130 Da), and then the samples were combined. Relative protein expression levels among the various treatments were measured using LC/MS proteomic techniques. Following protein digest, peptides are separated over a reverse phase column and then identified based on their mass.
Each multiplexed sample was then fractionated to increase the overall protein coverage using high pH reversed phase fractionation and analyzed by LC/MS using a Dionex UltiMate 3000 RSLC in tandem with a Q-Exactive/Lumos Orbitrap Mass Spectrometer. The chromatography was performed using a 2-hour gradient on a Thermo Pepmap C18 column (100 Å pore size, 3.0 μm particle size, […]×150 mm) set at 50° C. […]

[5] = test system: Human pulmonary ECs (PECs); test: Proteomic analysis (LC/MS) of pulmonary ECs treated with EPA and IL-6 for 24 hours; type: cell-based; conditions: EPA 40 μM + IL-6 12 ng/ml
Experimental: as §1, with “Human pulmonary ECs (PECs) and umbilical vein ECs (HUVECs) were treated with vehicle or EPA (40/10 μM in PECs/HUVECs) and IL-6 (12 ng/ml) for 24 hours. Proteomic analysis was performed using liquid chromatography/mass spectroscopy. […] Human” for “Human”

[6] = test system: umbilical vein ECs (HUVECs); test: Proteomic analysis (LC/MS) of HUVECs treated with EPA and IL-6 for 24 hours; type: cell-based, human; conditions: EPA 10 μM + IL-6 12 ng/ml
Experimental: as §1, with “Human pulmonary ECs (PECs) and umbilical vein ECs (HUVECs) were treated with vehicle or EPA (40/10 μM in PECs/HUVECs) and IL-6 (12 ng/ml) for 24 hours. Proteomic analysis was performed using liquid chromatography/mass spectroscopy. […] Human” for “Human”

Human pulmonary ECs = test: Proteomic analysis (LC/MS) of pulmonary ECs treated with EPA after IL-6 exposure; type: cell-based; conditions: IL-6 12 ng/ml 2 hours, then EPA 24 h
Experimental: Human pulmonary ECs were treated with vehicle or EPA for 24 h after exposure to IL-6 at 12 ng/ml for 2 hours. Proteomic analysis was performed using liquid chromatography/mass spectroscopy to capture relative expression levels. Only significant changes in protein expression between treatment groups >1-fold with a p-value less than 0.05 were analyzed.

[7] = Clinical study of human participants exposed to high-dose ethyl EPA; type: in vivo; conditions: high-dose exposure
Text: Based on a clinical study of human participants, the inventors have discovered that exposure to a high-dose ethyl EPA (i.e., […]) is associated with fewer anemia AEs and higher hemoglobin and hematocrit. High-dose ethyl EPA exposure is also associated with higher levels of the heme derivative bilirubin, which is a potent antioxidant. […] Both biliverdin and bilirubin are potent antioxidants, but bilirubin is likely the stronger of the two. Bilirubin can be converted back into biliverdin rather than being eliminated, thus perpetuating both compounds' antioxidant effects.

## CCCCC/C=C\C/C=C\C/C=C\C/C=C\CCCC(=O)O [AA, arachidonic acid, reference compound]
HUVECs [1]
  ONOO- Release: 194 ± 9 nM

## CC/C=C\C/C=C\C/C=C\C/C=C\C/C=C\C/C=C\CCC(=O)O [DHA, docosahexaenoic acid, reference compound]
HUVECs [2]; 10 μM 2 hours
  NO Release: 404 ± 15 nM

## CC/C=C\C/C=C\C/C=C\C/C=C\C/C=C\CCCC(=O)O [EPA, eicosapentaenoic acid]
Human PECs
  reduction of PA (palmitic acid) levels: 34%
[3]
  PECAM-1 Expression Relative to IL-6, Fold Change Increase: 1.22 fold
  decrease in PECAM-1: 120%
[4]
  HMOX-1 Expression Relative to IL-6, Fold Change Increase: 1.58 fold
  upregulation of inducible HMOX-1 compared to IL-6 alone: 160%
[5]
  Platelet endothelial cell adhesion molecule (PECAM) downregulation: 1.2 fold
  amyloid-beta precursor protein decrease: 1.1 fold
  heme-oxygenase-1 increase: 1.9 fold
  integrin alpha-V decrease: 1.1 fold
  thrombin receptor decrease: 1.3 fold
[6]
  Platelet endothelial cell adhesion molecule (PECAM) downregulation: 1.2 fold
  heme-oxygenase-1 increase: 1.6 fold
  integrin alpha-V decrease: 1.5 fold
  superoxide dismutase increase: 1.6 fold
HUVECs [1]
  decrease of ONOO— release relative to IL-6 alone: 17%
  ONOO- Release: 181 ± 10 nM
HUVECs [2]; 10 μM 2 hours, then IL-6 12 ng/ml 24 h (Example 5)
  increase of NO release compared to IL-6 alone: 13%
HUVECs [2]; 10 μM 2 hours
  NO Release: 421 ± 12 nM
HUVECs [2]; EPA 10 μM and IL-6 12 ng/ml 24 hours, calcium stimulation (Example 2)
  increase of NO release relative to IL-6 alone: 13%
Human pulmonary ECs
  ACE level reduction: 1.1 fold
  ECE-1 level reduction: 1.3 fold
  Hsp90 increase compared to IL-6: 1.1 fold
  caveolin-1 downregulation compared to IL-6: 1.3 fold

## CC/C=C\C/C=C\C/C=C\C/C=C\C/C=C\CCCC(=O)OCC [ethyl EPA, eicosapentaenoic acid ethyl ester]
[7]
  anemia AEs: fewer

## IL-6: cytokine interleukin-6 used to challenge endothelial cells (12 ng/ml) [reference compound]
HUVECs [1]
  ONOO- Release: 217 ± 10 nM
HUVECs [2]; 10 μM 2 hours
  NO Release: 371 ± 14 nM
